# Measured values from patent US20230085307A1, “PYRIDAZINONE COMPOUND AND HERBICIDE” (NISSAN CHEMICAL CORPORATION, priority 2019, published 2023).
# Experiments:
# [1] = test system: velvetleaf; assay: Test Example 5: herbicidal effect by foliage application, plastic box (Table 20, symbol M); assay type: in vivo, velvetleaf (Abutilon theophrasti); details: foliage application, AAH 320 g/ha, three weeks after application
# Outline: (§1)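 Plants sown in sterilized diluvial soil and grown 14 days in a greenhouse at 25° C to 30° C, then sprayed on the foliage with the compound's emulsion diluted in water to a predetermined herbicide amount. Injury to weeds and crops scored three weeks after application on a visual rating scale.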
# [2] = test system: false cleavers; assay: Test Example 5: herbicidal effect by foliage application, plastic box (Table 20, symbol Q); assay type: in vivo, false cleavers (Galium spurium); details: foliage application, AAH 320 g/ha, three weeks after application
# Outline: as §1
# [3] = test system: Chinese sprangletop; assay: Test Example 3: herbicidal effect by foliage application, Wagner pot (Table 18, symbol D); assay type: in vivo, chinese sprangletop (Leptochloa chinensis); details: 320 g/ha
# Outline: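 Plants were sown in alluvial soil held under 0.1–0.5 cm standing water and grown 14 days in a greenhouse at 25–30 °C. An emulsifiable formulation, water-diluted to the set dose, was then sprayed onto the foliage, and effects were scored three weeks later using previously defined criteria.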
# [4] = test system: blackgrass; assay: Test Example 4: herbicidal effect by soil treatment (Table 19, symbol J); assay type: in vivo, blackgrass (Alopecurus myosuroides); details: for herbicidal effect rating, J: blackgrass: amount of applied herbicide 320 g/ha
# Outline: (§2)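 Three weeks of greenhouse growth at 25° C. to 30° C. followed a uniform surface spray of water-diluted emulsion at a predetermined herbicide amount. Seeds had been sown beforehand under about 1.5 cm of sterilized diluvial soil. Grading followed criteria set out in an earlier test.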
# [5] = test system: persian speedwell; assay: Test Example 4: herbicidal effect by soil treatment (Table 19, symbol R); assay type: in vivo, Persian speedwell (Veronica persica); details: for herbicidal effect rating, R: persian speedwell: amount of applied herbicide 320 g/ha
# Outline: as §2
# [6] = test system: late watergrass; assay: Test Example 1: herbicidal activity, application before weed generation under submerged conditions (Table 16, symbol A); assay type: in vivo, late watergrass (Echinochloa oryzicola); details: 320 g/ha applied herbicide
# Outline: (§3)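 Alluvial soil was flooded to 4 cm depth, weed seeds were sown mixed and 2.5-leaf rice seedlings were transplanted. On sowing day, the compound's emulsion, diluted in water to a set dose, was applied to the water surface. Plants grew at 25–30 °C and were scored 0–5 after three weeks.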
# [7] = test system: chickweed; assay: Test Example 5: herbicidal effect by foliage application, plastic box (Table 20, symbol P); assay type: in vivo, common chickweed (Stellaria media); details: foliage application, AAH 320 g/ha, three weeks after application
# Outline: as §1
# [8] = test system: windgrass; assay: Test Example 4: herbicidal effect by soil treatment (Table 19, symbol L); assay type: in vivo, windgrass (Apera spica-venti); details: for herbicidal effect rating, L: windgrass: amount of applied herbicide 320 g/ha
# Outline: as §2
# [9] = test system: Japanese bulrush; assay: Test Example 1: herbicidal activity, application before weed generation under submerged conditions (Table 16, symbol B); assay type: in vivo, Japanese bulrush (Schoenoplectus juncoides); details: 320 g/ha applied herbicide
# Outline: as §3
# [10] = test system: false cleavers; assay: Test Example 4: herbicidal effect by soil treatment (Table 19, symbol Q); assay type: in vivo, false cleavers (Galium spurium); details: for herbicidal effect rating, Q: false cleavers: amount of applied herbicide 320 g/ha
# Outline: as §2
# [11] = test system: green foxtail; assay: Test Example 5: herbicidal effect by foliage application, plastic box (Table 20, symbol G); assay type: in vivo, green foxtail (Setaria viridis); details: foliage application, AAH 320 g/ha, three weeks after application
# Outline: as §1
# [12] = test system: oval-leafed pondweed; assay: Test Example 1: herbicidal activity, application before weed generation under submerged conditions (Table 16, symbol C); assay type: in vivo, oval-leafed pondweed (Monochoria vaginalis); details: 320 g/ha applied herbicide
# Outline: as §3
# [13] = test system: oval-leafed pondweed; assay: Test Example 2: herbicidal activity, application during weed generation under submerged conditions (Table 17, symbol C); assay type: in vivo, oval-leafed pondweed (Monochoria vaginalis); details: AAH 320 g/ha; application during weed generation, submerged conditions
# Outline: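 Wagner pot, alluvial soil, 4 cm flood; mixed sowing of all species; greenhouse 25° C.–30° C. Emulsifiable formulation, water-diluted to predetermined dose, applied to paddy water at 1–2 leaf stage. Effect rated at 3 wk using the earlier test's scoring criteria.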
smiles,measurement,setting,value
COC(=O)Oc1c(C)nn(C)c(=O)c1-c1c(-c2ccc3c(c2)OCCO3)sc2ccccc12 [1-091],"M: velvetleaf, herbicidal effect",[1],5 (Herbicidal rate of 90% or more (almost completely withered))
same,"Q: false cleavers, herbicidal effect",[2],4 (Herbicidal rate of 70% or more and less than 90%)
same,"herbicidal effect on D (Chinese sprangletop), rating 0-5",[3],1 (Herbicidal rate of 5% or more and less than 20%)
same,"herbicidal effect rating, J: blackgrass",[4],0 (Herbicidal rate of 5% or less (almost no effect))
same,"herbicidal effect rating, R: persian speedwell",[5],5 (Herbicidal rate of 90% or more (almost completely withered))
same,Herbicidal effect on A: late watergrass (grade 0-5),[6],5 (Herbicidal rate of 90% or more (almost completely withered))
same,"P: chickweed, herbicidal effect",[7],5 (Herbicidal rate of 90% or more (almost completely withered))
same,"herbicidal effect rating, L: windgrass",[8],0 (Herbicidal rate of 5% or less (almost no effect))
same,Herbicidal effect on B: Japanese bulrush (grade 0-5),[9],4 (Herbicidal rate of 70% or more and less than 90%)
same,"herbicidal effect rating, Q: false cleavers",[10],3 (Herbicidal rate of 40% or more and less than 70%)
same,"G: green foxtail, herbicidal effect",[11],5 (Herbicidal rate of 90% or more (almost completely withered))
same,Herbicidal effect on C: oval-leafed pondweed (grade 0-5),[12],4 (Herbicidal rate of 70% or more and less than 90%)
same,"herbicidal effect rating, C: oval-leafed pondweed",[13],4 (Herbicidal rate of 70% or more and less than 90%)
Cc1nn(C)c(=O)c(-c2c(-c3ccc4c(c3)OCCO4)sc3ccccc23)c1OC(=O)SC(C)(C)C [1-092],"M: velvetleaf, herbicidal effect",[1],5 (Herbicidal rate of 90% or more (almost completely withered))
same,"Q: false cleavers, herbicidal effect",[2],0 (Herbicidal rate of 5% or less (almost no effect))
same,"herbicidal effect on D (Chinese sprangletop), rating 0-5",[3],1 (Herbicidal rate of 5% or more and less than 20%)
same,"herbicidal effect rating, J: blackgrass",[4],0 (Herbicidal rate of 5% or less (almost no effect))
same,"herbicidal effect rating, R: persian speedwell",[5],4 (Herbicidal rate of 70% or more and less than 90%)
same,Herbicidal effect on A: late watergrass (grade 0-5),[6],5 (Herbicidal rate of 90% or more (almost completely withered))
same,"P: chickweed, herbicidal effect",[7],5 (Herbicidal rate of 90% or more (almost completely withered))
same,"herbicidal effect rating, L: windgrass",[8],0 (Herbicidal rate of 5% or less (almost no effect))
same,Herbicidal effect on B: Japanese bulrush (grade 0-5),[9],3 (Herbicidal rate of 40% or more and less than 70%)
same,"herbicidal effect rating, Q: false cleavers",[10],0 (Herbicidal rate of 5% or less (almost no effect))
same,"G: green foxtail, herbicidal effect",[11],3 (Herbicidal rate of 40% or more and less than 70%)
same,Herbicidal effect on C: oval-leafed pondweed (grade 0-5),[12],2 (Herbicidal rate of 20% or more and less than 40%)
same,"herbicidal effect rating, C: oval-leafed pondweed",[13],0 (Herbicidal rate of 5% or less (almost no effect))
Cc1nn(C)c(=O)c(-c2c(-c3ccc4c(c3)CCO4)sc3ccccc23)c1O [1-101],"M: velvetleaf, herbicidal effect",[1],5 (Herbicidal rate of 90% or more (almost completely withered))
same,"Q: false cleavers, herbicidal effect",[2],3 (Herbicidal rate of 40% or more and less than 70%)
same,"herbicidal effect on D (Chinese sprangletop), rating 0-5",[3],5 (Herbicidal rate of 90% or more (almost completely withered))
same,"herbicidal effect rating, J: blackgrass",[4],0 (Herbicidal rate of 5% or less (almost no effect))
same,"herbicidal effect rating, R: persian speedwell",[5],5 (Herbicidal rate of 90% or more (almost completely withered))
same,Herbicidal effect on A: late watergrass (grade 0-5),[6],4 (Herbicidal rate of 70% or more and less than 90%)
same,"P: chickweed, herbicidal effect",[7],5 (Herbicidal rate of 90% or more (almost completely withered))
same,"herbicidal effect rating, L: windgrass",[8],4 (Herbicidal rate of 70% or more and less than 90%)
same,Herbicidal effect on B: Japanese bulrush (grade 0-5),[9],5 (Herbicidal rate of 90% or more (almost completely withered))
same,"herbicidal effect rating, Q: false cleavers",[10],3 (Herbicidal rate of 40% or more and less than 70%)
same,"G: green foxtail, herbicidal effect",[11],5 (Herbicidal rate of 90% or more (almost completely withered))
same,Herbicidal effect on C: oval-leafed pondweed (grade 0-5),[12],5 (Herbicidal rate of 90% or more (almost completely withered))
same,"herbicidal effect rating, C: oval-leafed pondweed",[13],5 (Herbicidal rate of 90% or more (almost completely withered))
CCCC(=O)Oc1c(C)nn(C)c(=O)c1-c1c(-c2ccc3c(c2)CCO3)sc2ccccc12 [1-102],"M: velvetleaf, herbicidal effect",[1],5 (Herbicidal rate of 90% or more (almost completely withered))
same,"Q: false cleavers, herbicidal effect",[2],1 (Herbicidal rate of 5% or more and less than 20%)
same,"herbicidal effect on D (Chinese sprangletop), rating 0-5",[3],3 (Herbicidal rate of 40% or more and less than 70%)
same,"herbicidal effect rating, J: blackgrass",[4],0 (Herbicidal rate of 5% or less (almost no effect))
same,"herbicidal effect rating, R: persian speedwell",[5],5 (Herbicidal rate of 90% or more (almost completely withered))
same,Herbicidal effect on A: late watergrass (grade 0-5),[6],4 (Herbicidal rate of 70% or more and less than 90%)
same,"P: chickweed, herbicidal effect",[7],5 (Herbicidal rate of 90% or more (almost completely withered))
same,"herbicidal effect rating, L: windgrass",[8],0 (Herbicidal rate of 5% or less (almost no effect))
same,Herbicidal effect on B: Japanese bulrush (grade 0-5),[9],5 (Herbicidal rate of 90% or more (almost completely withered))
same,"herbicidal effect rating, Q: false cleavers",[10],0 (Herbicidal rate of 5% or less (almost no effect))
same,"G: green foxtail, herbicidal effect",[11],5 (Herbicidal rate of 90% or more (almost completely withered))
same,Herbicidal effect on C: oval-leafed pondweed (grade 0-5),[12],4 (Herbicidal rate of 70% or more and less than 90%)
same,"herbicidal effect rating, C: oval-leafed pondweed",[13],5 (Herbicidal rate of 90% or more (almost completely withered))
COCc1ccc(-c2sc3ccccc3c2-c2c(O)c(C)nn(C)c2=O)cc1 [1-131],"M: velvetleaf, herbicidal effect",[1],5 (Herbicidal rate of 90% or more (almost completely withered))
same,"Q: false cleavers, herbicidal effect",[2],4 (Herbicidal rate of 70% or more and less than 90%)
same,"herbicidal effect on D (Chinese sprangletop), rating 0-5",[3],4 (Herbicidal rate of 70% or more and less than 90%)
same,"J: blackgrass, herbicidal effect rating",[4]; AAH 320 g/ha,1 (Herbicidal rate of 5% or more and less than 20%)
same,"R: persian speedwell, herbicidal effect rating",[5]; AAH 320 g/ha,5 (Herbicidal rate of 90% or more (almost completely withered))
same,Herbicidal effect on A: late watergrass (grade 0-5),[6],2 (Herbicidal rate of 20% or more and less than 40%)
same,"P: chickweed, herbicidal effect",[7],5 (Herbicidal rate of 90% or more (almost completely withered))
same,"L: windgrass, herbicidal effect rating",[8]; AAH 320 g/ha,2 (Herbicidal rate of 20% or more and less than 40%)
same,Herbicidal effect on B: Japanese bulrush (grade 0-5),[9],1 (Herbicidal rate of 5% or more and less than 20%)
same,"Q: false cleavers, herbicidal effect rating",[10]; AAH 320 g/ha,0 (Herbicidal rate of 5% or less (almost no effect))
same,"G: green foxtail, herbicidal effect",[11],5 (Herbicidal rate of 90% or more (almost completely withered))
same,Herbicidal effect on C: oval-leafed pondweed (grade 0-5),[12],0 (Herbicidal rate of 5% or less (almost no effect))
same,"herbicidal effect rating, C: oval-leafed pondweed",[13],3 (Herbicidal rate of 40% or more and less than 70%)
